One assay has as its system HSV 2. The assay is described as follows: Plaque reduction assay, HSV 2. The assay is classed as cell-based. The protocol:
(§1) Protocol: Plaque reduction assay. Treatment after adsorption during incubation.

A further assay relates to HCMV. The assay is described as follows: Plaque reduction assay, HCMV. It is filed as cell-based. The protocol: as §1
(Plaque reduction counts the foci of infection that form in a cell layer.)

Another assay relates to HIV-1 infected JM cells. The assay is described as follows: Treatment of HIV-1 infected JM cells with DIDS, SITS and ddC. It is filed as cell-based, HIV-1 (human T cell line JM). The settings on record: 5 μM. The protocol: Protocol: JM cells were infected with HIV to give approximately 100 syncytia after 3 days. Virus adsorption was at room temperature for 2 hours. The cells were then washed thoroughly and distributed in wells of a tissue culture plate at a concentration of 1×10^5 cells/well. At 24 hours post infection either DIDS (100 μg/ml), SITS (100 μg/ml), or ddC (5 μM) were added to wells having infected cells. As virus controls, some wells had no drug added. At 42 hours post infection other wells received either ddC (5 μM), SITS (100 μg/ml), or DIDS (100, 50, 25, 12.5, 6.25 μg/ml). Syncytia were scored at 3 and 4 days post-infection and the supernatant fluids were harvested after 3 and 4 days for p24 core antigen determination.

The subject of a further assay is HIV-1. The settings on record: cited from earlier work.
The test system of assay [1] is virus-induced cell fusion (gp120-CD4 dependent). The assay is described as follows: Anti-syncytial cocultivation assay: H9 cells chronically infected with HIV-1 RF mixed with uninfected C8166 cells. The assay is classed as cell-based, HIV-1 RF; human H9 and C8166 cells. The following applies: for blocking virus-induced cell fusion and death: summary statement. An excerpt: Syncytial cell formation depends on the interaction of gp120, expressed in the membranes of infected cells, with the CD4 antigen on neighboring cells (Camerini and Seed, 1990). We utilized a cell cocultivation model to examine the effect of the stilbene disulfonic acids on the gp120-CD4 dependent fusion process. This system consists of mixing H9 cells chronically infected with HIV-1 RF (gp120^+ cells) with uninfected C8166 cells (CD4^+ cells) as the fusion indicator. In this assay, cell fusion occurred within 2 to 3 hours of mixing at 37° C. and substantial syncytia were observed after a further 3 to 4 hours (FIG. 1, Panel A). […] These findings with the sulfated polysaccharides were consistent with a previous report (Montefiori et al., 1990).
The effect of the stilbene disulfonic acids and various sulfated polysaccharides on virus-induced cell fusion. In this assay, 10^5 H9 cells, chronically infected with the HIV-1 strain RF, were cocultured with 10^5 uninfected C8166 cells in the absence and presence of the test compounds. FIG. 1A: Positive control, no compound addition; FIG. 1B: 100 μg/ml DIDS; FIG. 1C: 100 μg/ml SITS; FIG. 1D: positive control; FIG. 1E: 10 μg/ml 500,000 MW dextran sulfate; FIG. 1F: 250 μg/ml heparin.
CD4^+ uninfected C8166 cells were seeded into 24-well trays ([…]) that contained growth medium and various concentrations of test compounds. H9 cells, chronically infected with the RF strain of HIV-1, were washed and then added as a source of gp120^+ cells at 10^5 cells/well except for the noncytopathic control: those wells received uninfected H9 cells. The trays were then incubated at 37° C. and the cocultures were observed between 1 and 6 hours p.i. Syncytia were recorded on photographic film.
Protocol: H9 cells chronically infected with RF strain of HIV-1 and uninfected C8166 cells were mixed in the presence of either DIDS, SITS, H2 DIDS, dextran sulfate, or heparin (100 μg/ml). The cells were observed after 2, 31/2 and 51/2 hours and the amount of cell fusion quantified.
Protocol: H9 cells chronically inected with HIV-1 and uninfected C8166 cells were mixed in the presence of either DIDS, SITS, H2 DIDS, dextran sulfate, heparin (at 100 μg/ml), OKT4 or OKT4A (at a 1/50 dilution). The cells were observed after 4 hours and the amount of cell fusion quantitied. OKT4 and OKT4A are monoclonal antibodies that bined the CD4 cell surface antigen.

Assay [2] shares this test system. The assay is described as follows: Cell fusion after pretreatment of uninfected C8166 cells, washing and mixing with chronically infected H9 cells. It is filed as cell-based, HIV-1; human H9 and C8166 cells. The settings on record: cells pretreated and washed before mixing with H9 cells. The protocol:
In the next experiments, CD4+ C8166 cells were pretreated overnight with either DIDS (100 μg/ml), SITS (100 μg/ml) or drug-free medium. Unabsorbed compounds were removed by repeated washings and chronically infected H9 cells were then added. […] Thus, cell washing prior to mixing with the H9 cells oblated the protective effect observed above (FIG. 1, Panel E) when 500,000 MW dextran sulfate was continually present in the assay.
Pretreatment of CD4+ C8166 cells with DIDS blocks fusion with chronically infected H9 cells. In this experiment, C8166 cells were pretreated overight with various stilbene disulfonic acids or drug-free medium (fusion control). The cells were washed, incubated with chronically infected H9 cells and syncytia were photographed at 6 hours post-mixing. Pretreatment conditions were as follows: […]: 100 μg/ml SITS; FIG. 2B: drug-free medium; and FIG. 2C: 100 μg/ml DIDS.
In pretreatment experiments, CD4^+ C8166 cells were maintained in serum-free medium (RPMI 1640 plus human transferrin 50 μg/ml, bovine insulin 20 μg/ml, bovine serum albumin 2 mg/ml) and were exposed to compound by overnight incubation. Treated cells were washed twice in fresh serum-free medium and then cocultured with chronically infected H9 cells in serum-free medium. Otherwise, cell numbers, assay conditions and scoring of syncytia were as described above.
Protocol: C8166 cells were pretreated for 2.5 hours with either DIDS, SITS or H2 DIDS (at 500 and 250 μg/ml). The cells were then washed three times and mixed with H9 cells chronically infected with HIV-1. Cell fusion was quantified after 4 and 24 hours.

Read-outs that look alike come from different tables or passages of the source.

`Nc1nc2c(ncn2COCCO)c(=O)[nH]1` [Acyclovir, reference compound]: the Plaque counts is on record as 44 in the assay with HSV 2 (0.1 μg/ml, first count); 34 in the assay with HSV 2 (0.1 μg/ml, second count); 31 in the assay with HSV 2 (1 μg/ml, first count); 31 in the assay on HSV 2 (1 μg/ml, second count); 29 with HSV 2 (1 μg/ml, third count); 0 in the assay on HSV 2 (10 μg/ml, first count). Further, the Plaque counts amounted to 1 in the assay with HSV 2 (10 μg/ml, second count); 0 with HSV 2 (10 μg/ml, third count); 0 in the assay on HSV 2 (100 μg/ml, first count); 0 in the assay on HSV 2 (100 μg/ml, second count); 0 in the assay on HSV 2 (100 μg/ml, third count). Besides, in the assay on HSV 2 (0.1 μg/ml, read-out: Mean % VC (plaques)), the activity at 0.1 µg/mL was 70%. Moreover, the activity at 1 µg/mL in the assay on HSV 2 (1 μg/ml, read-out: Mean % VC (plaques)) is 54%. Also, the activity at 10 µg/mL with HSV 2 (10 μg/ml, read-out: Mean % VC (plaques)) came out at 0%. Further, in the assay with HSV 2 (100 μg/ml, read-out: Mean % VC (plaques)), the activity at 100 µg/mL came out at 0%.
Take `Nc1nc(O)c2ncn(COC(CO)CO)c2n1` [Gancyclovir, reference compound]: the Plaque counts in the assay on HCMV (0.1 μg/ml, first count) is given as 34; in the assay on HCMV (0.1 μg/ml, second count), 39; with HCMV (1 μg/ml, first count) it was 6; with HCMV (1 μg/ml, second count), 13; with HCMV (1 μg/ml, third count) it was 1; in the assay with HCMV (10 μg/ml, first count), 3. The Plaque counts in the assay on HCMV (10 μg/ml, second count) worked out at 2; in the assay with HCMV (10 μg/ml, third count) it was 7; in the assay on HCMV (1000 μg/ml, first count), 0; with HCMV (1000 μg/ml, second count), 0; in the assay with HCMV (1000 μg/ml, third count) it was 0. Also, in the assay on HCMV (Human betaherpesvirus 5, 0.1 μg/ml, read-out: Mean % VC (plaques)), the activity at 0.1 µg/mL is greater than 100%. In addition, in the assay on HCMV (Human betaherpesvirus 5, 1 μg/ml, read-out: Mean % VC (plaques)), the activity at 1 µg/mL was 22%. Besides, the activity at 10 µg/mL in the assay on HCMV (Human betaherpesvirus 5, 10 μg/ml, read-out: Mean % VC (plaques)) turned out to be 10%. Further, in the assay with HCMV (Human betaherpesvirus 5, 1000 μg/ml, read-out: Mean % VC (plaques)), the activity at 1000 µg/mL worked out at 0%.
Regarding `Nc1ccn([C@H]2CC[C@@H](CO)O2)c(=O)n1` [ddC, reference compound], the “Mean syncytia/well 3 days p.i.” value with HIV-1 infected JM cells (added 24 hr) is reported as 65; with HIV-1 infected JM cells (added 42 hr), “As VC”. Further, the results for the “Mean syncytia/well 4 days p.i.” value in the assay with HIV-1 infected JM cells (added 24 hr) and with HIV-1 infected JM cells (added 42 hr) were 51 and “As VC”, respectively. Also, the figures for the “p24 antigen 3 days p.i.” value with HIV-1 infected JM cells (added 24 hr) and in the assay on HIV-1 infected JM cells (added 42 hr) were 9000 pg/mL and 17000 pg/mL, respectively. The “p24 antigen 4 days p.i.” value in the assay on HIV-1 infected JM cells (added 24 hr) stood at 3100 pg/mL; with HIV-1 infected JM cells (added 42 hr) it was 67000 pg/mL. Also, the activity at 5 µM in the assay on HIV-1 infected JM cells (Human immunodeficiency virus 1, 72 h, added 24 hr, read-out: p24 antigen 3 days p.i., % control) stood at 19%; in the assay on HIV-1 infected JM cells (Human immunodeficiency virus 1, 72 h, added 42 hr, read-out: p24 antigen 3 days p.i., % control), 36%; in the assay with HIV-1 infected JM cells (Human immunodeficiency virus 1, 96 h, added 24 hr, read-out: p24 antigen 4 days p.i., % control), 3.5%; in the assay with HIV-1 infected JM cells (Human immunodeficiency virus 1, 96 h, added 42 hr, read-out: p24 antigen 4 days p.i., % control) it was 75%.
As to Dextran Sulfate [reference compound], the “inhibition of HIV-1 replication in vitro” value in the assay with HIV-1 is reported as “highly effective inhibitors”. In assay [1] (100 μg/ml, virus control +++), the “Syncytia after 3 1/2 hrs” value is 0 and the “Syncytia after 5 1/2 hrs” value is 0.
Turning to “Dextran sulfate (8,000) [reference compound]”, the “cell fusion / syncytia” value in assay [1] (100 μg/ml, at the time of cell mixing) was “totally ineffective”. Moreover, the “blocking virus-induced cell fusion and death” value in assay [1] is “ineffective at blocking virus-induced cell fusion and death”.
As to Heparin [reference compound], in the assay with HIV-1, the “inhibition of HIV-1 replication in vitro” value is given as “highly effective inhibitors”. Moreover, the “cell fusion relative to nontreated virus control” value in assay [1] (250 μg/ml, Panel F) is listed as “totally ineffective”. In assay [1], the “blocking virus-induced cell fusion and death” value was “ineffective at blocking virus-induced cell fusion and death”. Further, the “protective effect after pretreatment” value in assay [2] is given as “no protective effect”.
Take pentosan polysulfate: in the assay on HIV-1, the “inhibition of HIV-1 replication in vitro” value was “highly effective inhibitors”.

Values taken from patent US5494932A, “Sulfonic stilbene derivatives in the treatment of viral disease” (Merrell Dow Pharmaceuticals Inc., priority 1991, dated 1996).
